Patent publication US20240325351A1, “METHOD OF ADMINISTRATION” (Cybin UK Ltd., priority 2023, published 2024)
Where “and” joins values, the source holds several entries; their conditions need not be identical. Equal values may be shown once.

Columns and labels:
[1] = tested on: major depressive disorder; conditions: in vivo; cited from earlier work
[2] = tested on: patients with moderate-severe Major Depressive Disorder; experiment: MADRS in unblinded study of single IV dose of DMT fumarate (NCT05553691); format: in vivo, human; conditions: for MADRS score: individual patients; for MADRS score / Remission (MADRS score ≤10) / Response (≥50% reduction in MADRS score from baseline): fumarate
Excerpt: (§1) An unblinded study of a single dose of N,N-dimethyltryptamine [DMT] fumarate in patients currently taking a selective serotonin reuptake inhibitor (SSRI) for their depression, but for whom the SSRI is not fully relieving their depression is ongoing (ClinicalTrials.gov Identifier: NCT05553691). The study comprises two groups:
(§2) “Test Cohort”: Patients who are currently on a stable treatment course of SSRIs, which have been ineffective in fully relieving their depression symptoms (SSRI prescribed outside of study). Patients were administered a single dose of DMT fumarate by intravenous infusion; and
(§3) “Control Cohort”: Patients who are not currently taking any pharmacological treatment for their depression (control group). Patients were administered a single dose of DMT fumarate by intravenous infusion.
(§4) Patients were recruited with moderate-severe Major Depressive Disorder (“MDD”) as defined by a Hamilton Depression Rating Scale (HAM-D) score of ≥14. Efficacy was assessed using the Montgomery-Asberg Depression Rating scale (MADRS) to measure any change in patients' depression symptoms from baseline (Day 0). Additional exploratory endpoints include the Beck Depression Inventory (BDI) to assess patients' self-reported depression, and the State-Trait Anxiety Inventory (STAI-T) to assess patients' self-reported anxiety.
(§5) DMT fumarate is administered by intravenous infusion on Day 1.

[3] = tested on: patients with moderate-severe Major Depressive Disorder; experiment: STAI-T (State-Trait Anxiety Inventory), same study; format: in vivo, human; conditions: for STAI-T score: individual patients, fumarate
Excerpt: as §1, §2, §3, §4, §5

[4] = tested on: patients with moderate-severe Major Depressive Disorder; experiment: BDI-II (Beck Depression Inventory), same study; format: in vivo, human; conditions: for BDI-II score: individual patients, fumarate
Excerpt: as §1, §2, §3, §4, §5

[5] = tested on: patients with moderate-severe Major Depressive Disorder; experiment: Safety & Tolerability, same study; format: in vivo, human
Excerpt: as §1, §2, §3, §5
The administration of DMT fumarate was well-tolerated by all patients in both the test and the control cohorts, with no apparent differences between cohorts.

[6] = 33 mg; cited from earlier work
[7] = Control Cohort, n=5, Day 8 vs Day 0
[8] = Control Cohort, n=5, Day 15 vs Day 0
[9] = Control Cohort, n=5, Day 29 vs Day 0
[10] = Test Cohort (on SSRI), n=12, Day 8
[11] = Test Cohort (on SSRI), n=12, Day 8 vs Day 0
[12] = Test Cohort (on SSRI), n=12, Day 15
[13] = Test Cohort (on SSRI), n=12, Day 15 vs Day 0
[14] = Test Cohort (on SSRI), n=12, Day 29
[15] = Test Cohort (on SSRI), n=12, Day 29 vs Day 0
[16] = Test Cohort (on stable SSRI), Day 15
[17] = Test Cohort (on stable SSRI), Day 29

Compound: CN(C)CCc1c[nH]c2ccccc12 [N,N-dimethyltryptamine, 2-(1H-indol-3-yl)-N,N-dimethylethanamine]
- Durability of antidepressant effect [1]: three months or more

Compound: CN(C)CCc1c[nH]c2ccccc12.O=C(O)/C=C/C(=O)O [DMT fumarate, N,N-dimethyltryptamine fumarate]
- MADRS score ([2]; Control Cohort (no pharmacological treatment), Day 8): 7 and 21 (2×) and 24 and 9
- MADRS score ([2]; Control Cohort (no pharmacological treatment), Day 15): 8 and 18 and 21 and 26 and 7
- MADRS score ([2]; Control Cohort (no pharmacological treatment), Day 29): 17 and 18 and 15 and 30 and 0
- MADRS Mean ([2]; Control Cohort, n=5, Day 8): 16.4
- MADRS Mean % change from Baseline [2, 7]: −53.1%
- MADRS Mean ([2]; Control Cohort, n=5, Day 15): 16.0
- MADRS Mean % change from Baseline [2, 8]: −54.2%
- MADRS Mean ([2]; Control Cohort, n=5, Day 29): 16.0
- Number of participants in remission (MADRS ≤10) ([2]; Control Cohort, n=5, Day 29): One
- Remission (MADRS score ≤10) ([2]; Control Cohort, n=5, Day 29): 20%
- Response (≥50% reduction in MADRS score from baseline) ([2]; Control Cohort, n=5, Day 29): 80%
- MADRS Mean % change from Baseline [2, 9]: −54.8%
- MADRS Mean [2, 10]: 6.7
- MADRS Mean % change from Baseline [2, 11]: −78.1%
- MADRS Mean [2, 12]: 6.0
- MADRS Mean % change from Baseline [2, 13]: −81.2%
- MADRS Mean [2, 14]: 3.0
- Number of participants in remission (MADRS ≤10) [2, 14]: 11 participants
- Remission (MADRS score ≤10) [2, 14]: 92%
- Response (≥50% reduction in MADRS score from baseline) [2, 14]: 100%
- MADRS Mean % change from Baseline [2, 15]: −90.2%
- Number of participants in remission (MADRS ≤10) ([2]; Test Cohort (on SSRI), n=12, all other time points (Day 8, Day 15)): 10 participants
- MADRS score ([2]; Test Cohort (on stable SSRI), Day 8, single IV infusion Day 1): 1 (3×) and 0 (2×) and 27 and 21 and 10 and 7 and 2 (2×) and 8
- MADRS score [2, 16]: 1 and 0 (4×) and 27 and 15 and 8 and 3 and 5 and 4 and 9
- MADRS score [2, 17]: 11 and 0 and 8 and 1 and 6 and 7 and 2
- STAI-T score ([3]; Control Cohort, Day 8): 60 and 40 and 44 and 50 and 38
- STAI-T score ([3]; Control Cohort, Day 15): 58 and 46 and 39 and 52 and 41
- STAI-T score ([3]; Control Cohort, Day 29): 51 and 49 and 47 and 59 and 32
- STAI-T Mean ([3]; Control Cohort, n=5, Day 8): 46.4
- STAI-T Mean % change from Baseline [3, 7]: −28.9%
- STAI-T Mean ([3]; Control Cohort, n=5, Day 15): 47.2
- STAI-T Mean % change from Baseline [3, 8]: −27.6%
- STAI-T Mean ([3]; Control Cohort, n=5, Day 29): 47.6
- STAI-T Mean % change from Baseline [3, 9]: −27.2%
- STAI-T Mean [3, 10]: 39.8
- STAI-T Mean % change from Baseline [3, 11]: −33.6%
- STAI-T Mean [3, 12]: 37.3
- STAI-T Mean % change from Baseline [3, 13]: −37.5%
- STAI-T Mean [3, 14]: 35.2
- STAI-T Mean % change from Baseline [3, 15]: −41.0%
- STAI-T score ([3]; Test Cohort (on stable SSRI), Day 8): 47 and 40 (2×) and 66 and 49 and 34 (2×) and 26 and 46 and 28 and 29 and 38
- STAI-T score [3, 16]: 44 and 30 and 62 and 45 and 33 (2×) and 40 (2×) and 42 and 25 and 22 and 32
- STAI-T score [3, 17]: 45 and 34 (2×) and 41 and 43 and 28 and 40 and 32 (2×) and 44 and 26 and 23
- BDI-II score ([4]; Control Cohort, Day 15): 20 and 17 (2×) and 22 and 8
- BDI-II score ([4]; Control Cohort, Day 29): 12 and 13 and 16 and 31 and 2
- BDI-II Mean ([4]; Control Cohort, n=5, Day 15): 16.8
- BDI-II Mean % change from Baseline [4, 8]: −54%
- BDI-II Mean ([4]; Control Cohort, n=5, Day 29): 14.8
- BDI-II Mean % change from Baseline [4, 9]: −59%
- BDI-II Mean [4, 12]: 5.1
- BDI-II Mean % change from Baseline [4, 13]: −84%
- BDI-II Mean [4, 14]: 3.1
- BDI-II Mean % change from Baseline [4, 15]: −88%
- BDI-II score [4, 16]: 0 (3×) and 3 (2×) and 29 and 6 and 5 (2×) and 1 (2×) and 8
- BDI-II score [4, 17]: 0 (5×) and 4 and 11 and 7 (2×) and 1 and 2 and 5
- Tolerability ([5]; all patients in both test and control cohorts, no apparent differences between cohorts): well-tolerated
- Drug-related serious adverse events ([5]; both cohorts): No drug-related serious adverse events reported
- Resolution of drug-related AEs ([5]; both cohorts): majority of drug-related AEs were resolved during the dosing visit
- Severity of drug-related AEs ([5]; both cohorts): mild or moderate
- Number of drug-related adverse events (AEs) ([5]; control cohort): 3
- Number of drug-related adverse events (AEs) ([5]; test cohort (on SSRI)): 8

Compound: CC(C)N(CCc1c[nH]c2cccc(OC(=O)CCCC(=O)O)c12)C(C)C [iprocin-4-glutarate, N,N diisopropyltryptamine-4-glutarate]
- Mean duration of the subjective experience [6]: 3.7 h
